Assay [1] concerns the target K-Ras^G12C : hSOS1 interaction (Homo sapiens, UniProt Q07889). Briefly: Biochemical assay 1: K-Ras^G12C interaction assay with hSOS1 (HTRF). As to conditions: read-out: Assay 1 (KRAS-SOS Interaction) activity expressed as IC50. It is filed as binding. (In TR-FRET formats the signal depends on donor and acceptor labels being close together.)
The target of assay [2] is human SOS1 (nucleotide exchange of K-Ras^G12C) (Homo sapiens, UniProt Q07889). Briefly: Biochemical assay 2: K-Ras^G12C activation assay by hSOS1 at high GTP concentration (HTRF). The conditions noted are these: high GTP; read-out: Assay 2 (KRAS-Activation by SOS high GTP) activity expressed as IC50.

Here are results for 22 compounds from US20240083857A1, “2-Methyl-Quinazolines” (Bayer Pharma Aktiengesellschaft, priority 2017, published 2024).

A word on the IC50: it is the concentration at which inhibition is half-maximal.

On to `COc1cc2nc(C)nc(NC(C)c3cc(Br)cs3)c2cc1OC` (centres unmarked) [Example 264, N-[1-(4-bromothiophen-2-yl)ethyl]-6,7-dimethoxy-2-methylquinazolin-4-amine], for which the IC50 in assay [1] is 5940 nM; in assay [2], 1670 nM.
As for `COC(=O)CNCc1ccccc1-c1ccc(C(C)Nc2nc(C)nc3cc(OC)c(OC)cc23)s1` (centres unmarked) [Example 281, methyl N-[2-(5-{1-[(6,7-dimethoxy-2-methylquinazolin-4-yl)amino]ethyl}thiophen-2-yl)benzyl]glycinate], the figures for the IC50 in assay [1] and in assay [2] were 559 nM and 447 nM, respectively.
The matching figures for `COc1cc2nc(C)nc(NC(C)c3cccc(OC)c3OC)c2cc1OC` (centres unmarked) [Example 21, N-[1-(2,3-dimethoxyphenyl)ethyl]-6,7-dimethoxy-2-methylquinazolin-4-amine]: 3160 nM and 3230 nM.
For the compound `COc1cc2nc(C)nc(NC(C)c3ccc(-c4ccc(F)cc4CNC(=O)c4cc[nH]n4)s3)c2cc1OC` (centres unmarked) [Example 310, N-[2-(5-{1-[(6,7-dimethoxy-2-methylquinazolin-4-yl)amino]ethyl}thiophen-2-yl)-5-fluorobenzyl]-1H-pyrazole-3-carboxamide], the IC50 in assay [1] was found to be 5820 nM; in assay [2], 1340 nM.
The matching figures for `COc1cc2nc(C)nc(NC(C)c3ccc(-c4ccc(CN)s4)s3)c2cc1OC` (centres unmarked) [Example 276, N-{1-[5′-(aminomethyl)-2,2′-bithiophen-5-yl]ethyl}-6,7-dimethoxy-2-methylquinazolin-4-amine]: 1410 nM and 1660 nM.
Take `CCN(CC)Cc1ccccc1-c1ccc(C(C)Nc2nc(C)nc3cc(OC)c(OC)cc23)s1` (centres unmarked) [Example 288, N-[1-(5-{2-[(diethylamino)methyl]phenyl}thiophen-2-yl)ethyl]-6,7-dimethoxy-2-methylquinazolin-4-amine]: the IC50 came out at 170 nM in assay [1] and 140 nM in assay [2].
Regarding `COc1cc2nc(C)nc(NC(C)c3cc(C)cc4[nH]ncc34)c2cc1OC` (centres unmarked) [Example 16, 6,7-dimethoxy-2-methyl-N-[1-(6-methyl-1H-indazol-4-yl)ethyl]quinazolin-4-amine], the IC50 in assay [1] amounted to 3250 nM; in assay [2], 3020 nM.
Turning to `COc1cc2nc(C)nc(NC(C)c3ccc(-c4ccccc4CN4CCCC(C(N)=O)C4)s3)c2cc1OC` (centres unmarked) [Example 290, 1-[2-(5-{1-[(6,7-dimethoxy-2-methylquinazolin-4-yl)amino]ethyl}thiophen-2-yl)benzyl]piperidine-3-carboxamide], the IC50 in assay [1] was 176 nM; in assay [2] it was 116 nM.
For `COc1cc2nc(C)nc(NC(C)c3ccc(-c4ccccc4CN4CC(F)(F)C4)s3)c2cc1OC` (centres unmarked) [Example 320, N-[1-(5-{2-[(3,3-difluoroazetidin-1-yl)methyl]phenyl}thiophen-2-yl)ethyl]-6,7-dimethoxy-2-methylquinazolin-4-amine], the IC50 in assay [1] stood at 2260 nM; in assay [2], 1300 nM.
For `COc1cc2nc(C)nc(NC(C)c3ccc(-c4ccccc4CN4CCOCC4)s3)c2cc1OC` (centres unmarked) [Example 311, 6,7-dimethoxy-2-methyl-N-[1-{5-[2-(morpholin-4-ylmethyl)phenyl]thiophen-2-yl}ethyl]quinazolin-4-amine], in that order: 763 nM and 513 nM.
For `COc1cc2nc(C)nc(NC(C)c3ccc(-c4ccccc4CNCCO)s3)c2cc1OC` (centres unmarked) [Example 297, 2-{[2-(5-{1-[(6,7-dimethoxy-2-methylquinazolin-4-yl)amino]ethyl}thiophen-2-yl)benzyl]amino}ethanol], the figures for the IC50 in assay [1] and in assay [2] were 46 nM and 57.8 nM, respectively.
Turning to `COc1cc2nc(C)nc(NC(C)c3ccc(-c4ccc(F)cc4CNC(=O)[C@H]4CCCN4)s3)c2cc1OC` (stereo in doubt) [Example 316, N-[2-(5-{1-[(6,7-dimethoxy-2-methylquinazolin-4-yl)amino]ethyl}thiophen-2-yl)-5-fluorobenzyl]-prolinamide], the IC50 in assay [1] came out at 271 nM; in assay [2] it was 284 nM.
As for `COc1cc2nc(C)nc(NC(C)c3ccc(-c4ccccc4CN[C@H]4CCN(C)C4=O)s3)c2cc1OC` (stereo partly drawn) [Example 309, (3S)-{[2-(5-{1-[(6,7-dimethoxy-2-methylquinazolin-4-yl)amino]ethyl}thiophen-2-yl)benzyl]amino}-1-methylpyrrolidin-2-one], the IC50 in assay [1] is 1320 nM; in assay [2], 690 nM.
Consider `COc1cc2nc(C)nc(NC(C)c3ccc(-c4ccccc4CN4CC(N(C)C)C4)s3)c2cc1OC` (centres unmarked) [Example 319, N-{1-[5-(2-{[3-(dimethylamino)azetidin-1-yl]methyl}phenyl)thiophen-2-yl]ethyl}-6,7-dimethoxy-2-methylquinazolin-4-amine], for which the IC50 in assay [1] was 164 nM; in assay [2] it was 119 nM.
The matching figures for `COc1cc2nc(C)nc(NC(C)c3ccnc4sccc34)c2cc1OC` (centres unmarked) [Example 331, 6,7-dimethoxy-2-methyl-N-[1-(thieno[2,3-b]pyridin-4-yl)ethyl]quinazolin-4-amine]: 919 nM and 992 nM.
For `COc1cc2nc(C)nc(NC(C)c3ccc(-c4ccccc4C(C)=O)s3)c2cc1OC` (centres unmarked) [Example 324, 1-[2-(5-{1-[(6,7-dimethoxy-2-methylquinazolin-4-yl)amino]ethyl}thiophen-2-yl)phenyl]ethanone], in that order: 1290 nM and 3380 nM.
As for `COc1cc2nc(C)nc(NC(C)c3cccc4ccsc34)c2cc1OC` (centres unmarked) [Example 15, N-[1-(1-benzothiophen-7-yl)ethyl]-6,7-dimethoxy-2-methylquinazolin-4-amine], the IC50 in assay [1] stood at 126 nM; in assay [2], 91.1 nM.
`COc1cc2nc(C)nc(NC(C)c3ccc(-c4ccc(F)cc4CNC(=O)[C@@H]4CCCN4)s3)c2cc1OC` (stereo partly drawn) [Example 314, N-[2-(5-{1-[(6,7-dimethoxy-2-methylquinazolin-4-yl)amino]ethyl}thiophen-2-yl)-5-fluorobenzyl]-L-prolinamide]: the IC50 in assay [1] came out at 104 nM; in assay [2] it was 87.3 nM.
Regarding `COc1cc2nc(C)nc(NC(C)c3cc(-c4ccc(F)cc4CN)cs3)c2cc1OC` (centres unmarked) [Example 269, N-[1-{4-[2-(aminomethyl)-4-fluorophenyl]thiophen-2-yl}ethyl]-6,7-dimethoxy-2-methylquinazolin-4-amine], the IC50 in assay [1] is 162 nM; in assay [2], 115 nM.
Consider `COc1cc2nc(C)nc(NC(C)c3ccc(-c4ccc(F)cc4CNCc4nccn4C)s3)c2cc1OC` (centres unmarked) [Example 304, N-[1-{5-[4-fluoro-2-({[(1-methyl-1H-imidazol-2-yl)methyl]amino}methyl)phenyl]thiophen-2-yl}ethyl]-6,7-dimethoxy-2-methylquinazolin-4-amine], for which the IC50 was found to be 417 nM in assay [1] and 469 nM in assay [2].
Regarding `COc1cc2nc(C)nc(NC(C)c3ccc(-c4ccccc4CNCC(F)F)s3)c2cc1OC` (centres unmarked) [Example 315, N-{1-[5-(2-{[(2,2-difluoroethyl)amino]methyl}phenyl)thiophen-2-yl]ethyl}-6,7-dimethoxy-2-methylquinazolin-4-amine], the IC50 in assay [1] amounted to 777 nM; in assay [2], 967 nM.
`COc1cc2nc(C)nc(NC(C)c3ccc(-c4ccccc4CNCC(=O)c4c[nH]c5ccccc45)s3)c2cc1OC` (centres unmarked) [Example 277, 2-{[2-(5-{1-[(6,7-dimethoxy-2-methylquinazolin-4-yl)amino]ethyl}thiophen-2-yl)benzyl]amino}-1-(1H-indol-3-yl)ethanone]: the IC50 is 214 nM in assay [1] and 237 nM in assay [2].
